Measured values from paper PMC12140054, “Small glycomimetic antagonists of the cytomegalovirus glycoprotein UL141 prevent binding to TRAIL death receptor” (The Journal of Biological Chemistry, 2025).

System: human foreskin fibroblasts HFF-BJ (ATCC CRL-2522 cells)
Assay: MTT cytotoxicity / cell viability assay
Format: cell-based
Settings: 0.1 to 50 μM, 72 h
Description: Cell viability as visualized by fold change of formazan-positive cells normalized to the untreated control and DMSO. Viability reduced below 40% represents the cytotoxic zone, below the dotted line in each plot. The number of biological replicates is indicated.
Human foreskin fibroblasts (HFF), a type of primary fibroblast derived from neonatal foreskin tissue, were chosen for this bioassay due to their distinct advantages in studies involving HCMV. For instance, the HHF cells provide a relevant and effective platform due to their unique susceptibility to HCMV infection, ability to mimic human immune responses, and relevance to clinical scenarios. […] HFF cells were incubated with each compound at concentrations ranging from 0.1 to 50 μM and any possible cytotoxic effect was monitored for 72 h. Tested compounds were dissolved in dimethyl sulfoxide (DMSO). […] The cytotoxic effect (CTE) is represented here as the concentration that causes a reduction of more than 40% in the number of viable cells.
Cells were seeded in a 96-well plate at a density of 1 × 10^4 cells per well for the measurement of cytotoxicity of the compounds (without UVA irradiation). […] Cells after treatment were incubated for […]. Untreated cells were considered negative control, and DMSO-treated cells (at appropriate concentration) were considered vehicle control. The classical MTT assay (3-(4,5-dimethyl thiazolyl-2)-2,5-diphenyltetrazolium bromide) ([68]) was used to measure cellular metabolic activity as an indicator of cell viability, proliferation, and cytotoxicity. Briefly, 0.5 mg/ml MTT solution was dispensed in each well of the 96-well plate and incubated for 4 h. Afterward, the MTT solution was removed and 200 μl of 100% DMSO was added to each well and the plate was placed on a microplate shaker for 5 min to dissolve the formazan granules. The absorbance was measured at 550 nm using a spectrophotometer. DMSO and MTT were purchased from Thermo Fisher Scientific. The darker the solution, the greater the number of viable, metabolically active cells. All experimental compounds were measured using at least 2 to 3 replicates for each and the averaged values from three independent experiments (n = 3) are presented. Cell viability was visualized by fold change of formazan-positive cells normalized to the untreated control and DMSO. Viability reduced below 40% represents the cytotoxic zone. All evaluations were performed using GraphPad Prism 9.5.0 (GraphPad Software, LLC), if other software was not explicitly mentioned.

CCC1C(O)C(O)CN1Cc1ccc(I)cc1 (stereo not shown) [Compound 18]
cytotoxicity (in words): no cytotoxicity was detected
